Patent publication US20100173888A1 (Pfizer Inc, priority 2008, published 2010)

molecular target: T1, human recombinant H-PGDS (Homo sapiens, UniProt O60760); assay: Fluorescence intensity h-PGDS TBA enzyme assay (PGH2 depletion, MDA/TBA fluorescence); format: biochemical; conditions: 1:175,000 human recombinant H-PGDS, 42 second reaction, 3-fold serial dilutions, highest concentration typically 1 μM
In short: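 Recombinant human H-PGDS preincubated with inhibitor 10 min at room temperature in pH 8.0 Tris, MgCl2, IgG, 2.5 mM glutathione, 0.5% DMSO. Reaction with 5.0 μM PGH2 stopped at 42 s with FeCl2/citric acid; MDA–TBA fluorescence (ex 530/em 565 nm) read after 70° C. IC50 by 4-parameter fit, 11 concentrations.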

T1 sequence (O60760 whole entry): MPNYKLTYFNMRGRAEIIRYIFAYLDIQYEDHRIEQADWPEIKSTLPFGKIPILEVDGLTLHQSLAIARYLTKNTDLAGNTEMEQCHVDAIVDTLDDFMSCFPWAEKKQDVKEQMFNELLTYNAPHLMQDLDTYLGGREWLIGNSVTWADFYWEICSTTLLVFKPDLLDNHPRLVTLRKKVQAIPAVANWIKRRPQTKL

Row | Compound | IC50 [µM]
1 | O=C(NC1CCC(O)(CN2CCCCC2)CC1)c1ccc(-c2cccc(F)c2)nc1 (centres unmarked) [Example 153, 6-(3-Fluorophenyl)-N-(4-hydroxy-piperidin-1-ylmethylcyclohexyl)nicotinamide] | 0.0132
2 | COC1(CO)CCC(NC(=O)c2ccc(-c3cccc(F)c3)nc2)CC1 (centres unmarked) [Example 225, 6-(3-Fluorophenyl)-N-[4-(hydroxymethyl)-4-methoxycyclohexyl]nicotinamide] | 0.0053
3 | O=C(N[C@@H]1CCC[C@H](CN2CCC2)C1)c1ccc(-c2cccc(F)c2)nc1 (relative stereo) [Example 258] | 0.0292
4 | O=C(N[C@@H]1CCC[C@@H](C(=O)N2CCCC2)C1)c1ccc(-c2cccc(F)c2)nc1 (relative stereo) [Example 239] | 0.0349
5 | C[C@@H](CO)NC(=O)[C@H]1CCC[C@@H](NC(=O)c2ccc(-c3cccc(F)c3)nc2)C1 [Example 188] | 0.0171
6 | NC1CCN(C(=O)[C@@H]2CC[C@H](NC(=O)c3ccc(-c4cccc(F)c4)nc3)C2)CC1 [Example 177, N-{(1S,3R)-3-[(4-Aminopiperidin-1-yl)carbonyl]cyclopentyl}-6-(3-fluorophenyl)nicotinamide] | 0.0214
7 | COC1(C(C)O)CCC(NC(=O)c2ccc(-c3cccc(F)c3)nc2)CC1 (centres unmarked) [Example 232, 6-(3-Fluorophenyl)-N-[4-(1-hydroxyethyl)-4-methoxycyclohexyl]nicotinamide] | 0.0312
8 | C[C@]1(C(=O)O)CCC[C@@H](NC(=O)c2ccc(-c3cccc(F)c3)nc2)C1 (relative stereo) [Example 231, (1S*,3R*)-3-({[6-(3-Fluorophenyl)pyridin-3-yl]carbonyl}amino)-1-methylcyclohexane carboxylic acid] | 0.0138
9 | O=C(N[C@@H]1CCCC[C@@H]1CO)c1ccc(-c2cccc(F)c2)nc1 [Example 24] | 0.0201
10 | CN1CCN(C(=O)N[C@@H]2CCC[C@H](NC(=O)c3ccc(-c4cccc(F)c4)nc3)C2)CC1 (relative stereo) [Example 268, N-(cis-3-({[6-(3-Fluorophenyl)pyridine-3-yl]carbonyl}amino)cyclohexyl]-4-methylpiperazine-1-carboxamide] | 0.0246
11 | O=C(N[C@@H]1CCC[C@@H](C(=O)NCCCO)C1)c1ccc(-c2cccc(F)c2)nc1 (relative stereo) [Example 242] | 0.0198
12 | CN(C)C(=O)C1(C#N)CCCC(NC(=O)c2ccc(-c3cccc(F)c3)nc2)C1 (centres unmarked) [Example 266, N-[3-Cyano-3-(dimethylcarbamoyl)cyclohexyl]-6-(3-fluorophenyl)nicotinamide] | 0.0106
13 | CN1CCN(C(=O)C[C@H]2CC[C@@H](NC(=O)c3ccc(-c4cccc(F)c4)nc3)CC2)CC1 [Example 274, 6-(3-Fluorophenyl)-N-{cis-4-[2-(-methylpiperazin-1-yl)-2-oxoethyl]cyclohexyl}nicotinamide] | 0.0137
14 | Cc1cccc(-c2ccc(C(=O)NC3CCCCC3)cn2)c1 [Example 19, N-Cyclohexyl-6-(3-methylphenyl)nicotinamide] | 0.0102
15 | O=C(N[C@H]1CC[C@@H](C(=O)N2CCN(CCO)CC2)C1)c1ccc(-c2cccc(F)c2)nc1 [Example 156, 6-(3-fluorophenyl)-N-[(1S,3R)-3-{[4-(2-hydroxyethyl)piperazin-1-yl]carbonyl}cyclopentyl]nicotinamide] | 0.0115
16 | COC(=O)C1(NC(=O)c2ccc(-c3ccc(F)cc3)nc2)CC1 [Example 5] | ≥ 1
17 | N[C@H]1CCCC[C@H]1NC(=O)[C@H]1CC[C@H](NC(=O)c2ccc(-c3cccc(F)c3)nc2)CC1 [Example 113D, N-(trans-4-{[(1R,2S)-2-aminocyclohexyl]carbamoyl}cyclohexyl)-6-(3-fluorophenyl)nicotinamide] | 0.0108
18 | O=C(N[C@@H]1CC[C@H](C(=O)N2CCOCC2)C1)c1ccc(-c2cccc(F)c2)nc1 [Example 179, 6-(3-Fluorophenyl)-N-[(1R,3S)-3-(morpholin-4-ylcarbonyl)cyclopentyl]nicotinamide] | 0.0056
19 | COCCNC(=O)[C@@H]1CCC[C@@H](NC(=O)c2ccc(-c3cccc(F)c3)nc2)C1 (relative stereo) [Example 240] | 0.0265

molecular target: T1, human recombinant H-PGDS; assay: Slightly modified fluorescence intensity h-PGDS TBA enzyme assay (1:40,000 enzyme, 40 second reaction, 1/2 log dilutions, top concentration typically 10 μM); format: biochemical; conditions: slightly modified assay: 1:40,000 human recombinant H-PGDS
Protocol: Fluoresecence Intensity h-PGDSTBA Enzyme Assay
Prostaglandin D Synthase (PGDS) converts the substrate prostaglandin H2 (PGH2) to prostaglandin D2. The depletion of PGH2 was measured via an Fe(II) reduction of the remaining PGH2 to malondialdehyde (MDA) and 12-HHT. The enzyme assay is based on the quantitative formation of a fluorescent complex from the non-fluorescent compounds MDA and 2-thiobarbituric acid (TBA), substantially as described in U.S. patent application publication US-2004/152148 by Lombardt.
Examples 6-8, 11a-16, 23, 26-47, 49-103, 105-113, 115-118 and 126-128 were tested in a slightly modified assay: The enzyme assay (30 μls during biological process) contained 100 mM Trizma pH 8.0, 100 μM MgCl2, 0.1 mg/ml IgG Rabbit serum, 5.0 μM PGH2 (Cayman; ethanol solution, #17020), 2.5 mM L-Glutathione (Sigma; reduced form #G4251), 1:40,000 human recombinant H-PGDS (from 1 mg/ml), 0.5% DMSO and inhibitor (varying concentration). 3 μls of diluted inhibitor (dissolved in DMSO) was plated into a 384-well assay plate followed by a 24 μl addition of an enzyme solution containing h-PGDS, Trizma, MgCl2, IgG and L-Glutathione. After pre-incubation of inhibitor and enzyme solution for 10 minutes at room temperature, the reaction was initiated with a 3 μl addition of substrate solution in 10 mM HCl. The reaction was terminated after 40 second by the addition of 3 μl stop buffer containing FeCl2 and citric acid. After addition of 45 μls of TBA plates were heated for one hour in a 70° C. oven. Plates were cooled at room temperature overnight and read on a plate reader the next day with excitation @ 530 nm and emission @ 560 nm. IC50' s of inhibitors were calculated with a 4-parameter fit using 11 inhibitor concentrations in duplicate with ½ log serial dilutions. Controls on each plate included no inhibitor (zero % effect) and an inhibitor 500-fold in excess of its' IC50 (100% effect). The highest inhibitor concentration tested was typically 10 μM.

Row | Compound | IC50 [µM]
20 | O=C(NC1CCC(N2CCOCC2)CC1)c1ccc(-c2cccc(F)c2)nc1 (single isomer, unassigned) [Example 49, 6-(3-Fluorophenyl)-N-(4-morpholin-4-ylcyclohexyl)nicotinamide] | 0.0692
21 | O=C(N[C@H]1CC[C@@H](C(=O)N2CCC(O)CC2)CC1)c1ccc(-c2cccc(F)c2)nc1 [Example 68, 6-(3-Fluorophenyl)-N-{cis-4-[(4-hydroxypiperidin-1-yl)carbonyl]cyclohexyl}nicotinamide] | 0.0132
22 | CN(C)C(=O)C[C@H]1CC[C@@H](NC(=O)c2ccc(-c3cccc(F)c3)nc2)CC1 [Example 78] | 0.00789
23 | O=C(N[C@H]1CCC[C@@H](C(=O)NCc2ccccc2)C1)c1ccc(-c2cccc(F)c2)nc1 (relative stereo) [Example 30, N-[cis-3-(Benzylcarbamoyl)cyclohexyl]-6-(3-fluorophenyl)nicotinamide] | 0.0256
24 | N[C@H]1CCN(C(=O)[C@H]2CC[C@H](NC(=O)c3ccc(-c4cccc(F)c4)nc3)CC2)C1 [Example 98, N-(trans-4-{[(3S)-3-Aminopyrrolidin-1-yl]carbonyl}cyclohexyl)-6-(3-fluorophenyl)nicotinamide] | 0.0216
25 | O=C(N[C@H]1CC[C@@H](C(=O)NCc2ccccc2)CC1)c1ccc(-c2cccc(F)c2)nc1 [Example 71, N-[cis-4-(Benzylcarbamoyl)cyclohexyl]-6-(3-fluorophenyl)nicotinamide] | 0.022
26 | CN(C)C(=O)[C@H]1CC[C@@H](NC(=O)c2ccc(-c3cccc(F)c3)nc2)CC1 [Example 74, N-[cis-4-(Dimethylcarbamoyl)cyclohexyl]-6-(3-fluorophenyl)nicotinamide] | 0.0108
27 | CN(C)C[C@H]1C[C@@H](NC(=O)c2ccc(-c3cccc(F)c3)nc2)C1 [Example 7] | 0.292
28 | O=C(N[C@H]1CC[C@@H](CN2CCOCC2)CC1)c1ccc(-c2cccc(F)c2)nc1 [Example 80, 6-(3-Fluorophenyl)-N-[cis-4-(morpholin-4-ylmethyl)cyclohexyl]nicotinamide] | 0.0166
29 | CSc1nccn1C1CCC(NC(=O)c2ccc(-c3cccc(F)c3)nc2)CC1 (centres unmarked) [Example 45, 6-(3-Fluorophenyl)-N-{4-[2-(methylthio)-1H-imidazol-1-yl]cyclohexyl}nicotinamide] | 0.0105
30 | CNCCN(C)C(=O)[C@@H]1CCC[C@H](NC(=O)c2ccc(-c3cccc(F)c3)nc2)C1 (relative stereo) [Example 37, 6-(3-Fluorophenyl)-N-[cis-3-{methyl[2-(methylamino)ethyl]carbamoyl}cyclohexyl]nicotinamide] | 0.0254
31 | O=C(N[C@H]1CCC[C@@H](C(=O)NCCCO)C1)c1ccc(-c2cccc(F)c2)nc1 (relative stereo) [Example 64E, 6-(3-fluorophenyl)-N-{cis-3-[(3-hydroxypropyl)carbamoyl]cyclohexyl}nicotinamide] | 0.0093
32 | CN1CCN(C(=O)[C@H]2CC[C@H](NC(=O)c3ccc(-c4cccc(F)c4)nc3)CC2)CC1 [Example 90, 6-(3-Fluorophenyl)-N-{trans-4-[(4-methylpiperazin-1-yl)carbonyl]cyclohexyl}nicotinamide] | 0.0126
